Our source for the Emax, IC50 and DC50 values is ChEMBL document CHEMBL5523673, “Progress in the controllability technology of PROTAC” (Eur J Med Chem, 2024).

The structures appear in SMILES notation.

Series [1] has as its target T1, von Hippel-Lindau disease tumor suppressor/Bromodomain-containing protein 4 (Homo sapiens, UniProt O60885+P40337). The series can be described thus: PROTAC activity at human VHL/BRD4 in human HeLa cells assessed as maximal degradation of BRD4 incubated for 24 hrs by Western blot analysis relative to control. The format is cell-based. Background: In western blotting, separated proteins are transferred to a membrane and probed.

Another series deals with OVCAR-8. The series can be described thus: Antiproliferative activity against human OVCAR-8 cells assessed as reduction in cell viability incubated for 72 hrs by CCK-8 assay. Type of series: functional, cell-based. To be noted: OVCAR-8, 72 h. (Tetrazolium dyes change colour on reduction, which living cells bring about.)
Another series has as its system T47D. As to the kind of experiment: Antiproliferative activity against human T47D cells assessed as reduction in cell viability incubated for 72 hrs by CCK-8 assay. The format is functional, cell-based.
Series [2] can be described thus: Antiproliferative activity against human HFF-1 cells assessed as reduction in cell viability incubated for 72 hrs by CCK-8 assay. Type of series: toxicity, cell-based.
Series [3] is described as follows: Antiproliferative activity against human HK-2 cells assessed as reduction in cell viability incubated for 72 hrs by CCK-8 assay. The format is toxicity, cell-based.
A short description of series [4]: Antiproliferative activity against mouse 3T3 cells assessed as reduction in cell viability incubated for 72 hrs by CCK-8 assay. Type of series: toxicity, cell-based. To be noted: NIH3T3 cells.
Series [5] concerns MCF7. The series can be described thus: Antiproliferative activity against human MCF7 cells assessed as reduction in cell viability incubated for 72 hrs by CellTiter-Glo luminescent assay. Type of series: functional, cell-based. The settings on record: MCF7, 72 h. (Cellular ATP, detected with luciferase, serves as a proxy for viable cell number.)
For series [6], the system named is MCF7. The series can be described thus: Cytotoxicity against human MCF7 cells assessed as reduction in cell growth incubated for 72 hrs by CellTiter-Glo luminescent assay. The format is functional, cell-based. The settings on record: MCF7, 72 h.
Series [7] deals with T1, von Hippel-Lindau disease tumor suppressor/Bromodomain-containing protein 4. The series can be described thus: PROTAC activity at VHL/BRD4 in human MCF7 cells assessed as induction of BRD4 degradation incubated for 18 hrs by Western blotting analysis. The format is cell-based.
Series [8] shares this target. As to the kind of experiment: PROTAC activity at human VHL/BRD4 in human MCF7 cells assessed as maximum degradation of BRD4 measured after 18 hrs by Western blot analysis relative to control. The format is cell-based.
Series [9] concerns the target Epidermal growth factor receptor (Homo sapiens, UniProt P00533). The series can be described thus: Inhibition of EGFR (unknown origin).
In series [10] the target is Protein cereblon/Bromodomain-containing protein 4 (Homo sapiens) (UniProt O60885+Q96SW2). The series can be described thus: PROTAC activity at CRBN/BRD4 in human NAMALVA cells assessed as maximal degradation at 1 uM incubated for 30 mins by Western blot analysis relative to control. The format is cell-based.
Sequence of Protein cereblon/Bromodomain-containing protein 4 (Homo sapiens) (Q96SW2 whole entry, looked up, other chains not shown): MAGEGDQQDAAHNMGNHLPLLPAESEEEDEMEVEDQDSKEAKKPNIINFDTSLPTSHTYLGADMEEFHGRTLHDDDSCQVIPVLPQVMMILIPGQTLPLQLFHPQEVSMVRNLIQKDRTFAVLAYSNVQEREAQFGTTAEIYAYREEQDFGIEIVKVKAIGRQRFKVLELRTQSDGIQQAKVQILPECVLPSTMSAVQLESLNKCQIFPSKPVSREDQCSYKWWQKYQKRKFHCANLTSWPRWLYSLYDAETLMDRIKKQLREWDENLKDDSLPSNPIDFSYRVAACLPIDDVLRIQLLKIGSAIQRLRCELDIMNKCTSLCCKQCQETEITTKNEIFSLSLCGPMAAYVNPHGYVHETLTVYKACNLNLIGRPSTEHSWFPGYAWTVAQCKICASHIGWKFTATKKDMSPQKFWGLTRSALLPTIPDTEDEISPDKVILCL

T1 sequence (P40337 whole entry, looked up, other chains not shown): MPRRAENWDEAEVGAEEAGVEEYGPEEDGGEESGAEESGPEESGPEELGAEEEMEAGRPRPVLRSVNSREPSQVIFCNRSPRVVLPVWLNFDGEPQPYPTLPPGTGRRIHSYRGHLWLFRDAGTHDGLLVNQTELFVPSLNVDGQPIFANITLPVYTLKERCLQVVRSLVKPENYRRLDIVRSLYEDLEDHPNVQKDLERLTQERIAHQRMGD
Sequence of Epidermal growth factor receptor (P00533 whole entry): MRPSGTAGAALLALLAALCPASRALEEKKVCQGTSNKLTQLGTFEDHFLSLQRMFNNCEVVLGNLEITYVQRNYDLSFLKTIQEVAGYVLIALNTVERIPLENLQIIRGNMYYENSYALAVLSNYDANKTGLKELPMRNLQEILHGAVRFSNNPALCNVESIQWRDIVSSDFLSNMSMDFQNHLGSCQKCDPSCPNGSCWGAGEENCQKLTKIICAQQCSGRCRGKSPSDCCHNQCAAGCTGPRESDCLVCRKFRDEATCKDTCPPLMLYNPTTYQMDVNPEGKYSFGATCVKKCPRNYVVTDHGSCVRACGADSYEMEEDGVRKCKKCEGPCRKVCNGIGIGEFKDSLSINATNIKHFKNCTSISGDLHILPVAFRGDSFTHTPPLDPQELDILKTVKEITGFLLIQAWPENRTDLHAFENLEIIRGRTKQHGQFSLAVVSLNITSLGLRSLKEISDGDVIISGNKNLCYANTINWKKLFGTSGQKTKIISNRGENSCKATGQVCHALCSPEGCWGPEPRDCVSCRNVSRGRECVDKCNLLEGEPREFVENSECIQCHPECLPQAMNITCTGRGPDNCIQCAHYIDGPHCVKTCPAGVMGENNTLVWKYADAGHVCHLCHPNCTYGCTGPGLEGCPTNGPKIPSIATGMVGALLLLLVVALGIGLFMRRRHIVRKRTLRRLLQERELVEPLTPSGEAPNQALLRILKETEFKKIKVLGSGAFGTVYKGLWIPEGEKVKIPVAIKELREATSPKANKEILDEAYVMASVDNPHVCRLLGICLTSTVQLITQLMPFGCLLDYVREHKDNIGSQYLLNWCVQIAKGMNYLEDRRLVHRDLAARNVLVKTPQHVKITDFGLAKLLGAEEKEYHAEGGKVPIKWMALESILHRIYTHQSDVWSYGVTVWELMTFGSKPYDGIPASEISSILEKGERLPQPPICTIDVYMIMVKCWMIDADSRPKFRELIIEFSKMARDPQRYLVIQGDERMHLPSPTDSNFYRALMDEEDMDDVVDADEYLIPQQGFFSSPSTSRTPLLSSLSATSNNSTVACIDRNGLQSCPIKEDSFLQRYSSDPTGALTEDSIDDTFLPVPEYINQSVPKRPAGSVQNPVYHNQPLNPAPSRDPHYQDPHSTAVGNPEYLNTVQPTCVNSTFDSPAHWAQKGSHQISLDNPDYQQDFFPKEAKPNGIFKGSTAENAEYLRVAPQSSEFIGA

In general, Emax refers to the maximal effect, on the per cent scale that the assay sets. Take `Cc1ncsc1-c1ccc([C@H](C)NC(=O)[C@@H]2C[C@@H](OC(=O)Cc3ccc(B4OC(C)(C)C(C)(C)O4)cc3)CN2C(=O)[C@@H](NC(=O)COCCCOCCNC(=O)C[C@@H]2N=C(c3ccc(Cl)cc3)c3c(sc(C)c3C)-n3c(C)nnc32)C(C)(C)C)cc1`: in series [1], the Emax amounted to 70%.
A word on the IC50: it is the concentration at which inhibition is half-maximal. For `Cc1ncsc1-c1ccc([C@H](C)NC(=O)[C@@H]2C[C@@H](O)CN2C(=O)[C@@H](NC(=O)COCCCOCCNC(=O)C[C@@H]2N=C(c3ccc(Cl)cc3)c3c(sc(C)c3C)-n3c(C)nnc32)C(C)(C)C)cc1`, the values for the IC50 in the series on OVCAR-8, in the series with T47D and in the series on MCF7 [5] were 215 nM, 13 nM and 120 nM, respectively. Also, the IC50 at 72 h in series [2] was found to be 1100 nM; in series [3] it was 160 nM; in [4], 210 nM.
A word on the DC50: it is the concentration at which degradation of the target reaches its halfway point. Consider `Cc1sc2c(c1C)C(c1ccc(Cl)cc1)=N[C@@H](CC(=O)NCCCCCN(Cc1ccc(B(O)O)cc1)c1cccc3c1CN(C1CCC(=O)NC1=O)C3=O)c1nnc(C)n1-2` (stereo partly drawn), for which the IC50 in the series with MCF7 [5] was found to be 122 nM; with MCF7 [6], 1020 nM. Moreover, the DC50 in series [7] amounted to 31.2 nM. In addition, the Emax in [8] came to 77.5%.
Regarding `Cc1ncsc1-c1ccc([C@H](C)NC(=O)[C@@H]2C[C@@H](OC(=O)CCCCn3cc(CNC(=O)CC[C@H](NC(=O)c4ccc(NCc5cnc6nc(N)[nH]c(=O)c6n5)cc4)C(=O)O)nn3)CN2C(=O)[C@@H](NC(=O)COCCCOCCNC(=O)C[C@@H]2N=C(c3ccc(Cl)cc3)c3c(sc(C)c3C)-n3c(C)nnc32)C(C)(C)C)cc1`, the IC50 in the series with OVCAR-8 turned out to be 297 nM; in the series on T47D it was 18 nM. Besides, the IC50 at 72 h is over 10000 nM in [2], 2100 nM in series [3] and 1400 nM in [4].
In the case of `COc1cc2ncnc(N(Cc3ccc([N+](=O)[O-])cc3)c3ccc(F)c(Cl)c3)c2cc1OCCOCCOCCOCCC(=O)Nc1cccc2c1CN(C1CCC(=O)NC1=O)C2=O` (stereo not drawn), in series [9], 3560 nM corresponded to half-maximal inhibition (IC50).
In the case of `COc1cc(CN(CCCCNC(=O)COc2cccc3c2C(=O)N(C2CCC(=O)NC2=O)C3=O)C(=O)CC2N=C(c3ccc(Cl)cc3)c3c(sc(C)c3C)-n3c(C)nnc32)c([N+](=O)[O-])cc1OC` (stereo not drawn), the Emax in [10] came out at 93%.
